Results reported in patent publication US20220194938A1, “NOVEL COMPOUNDS AND PHARMACEUTICAL COMPOSITIONS THEREOF FOR THE TREATMENT OF INFLAMMATORY DISORDERS” (GALAPAGOS NV, priority 2019, published 2022).
Where two headings read alike, the source gives them in different places.

Key:
[1] = test system: CL097 triggered IFNα and TNFα release in human whole blood; test: Ex vivo human IFNα and TNFα release inhibition (whole blood assay, CL097 triggered); format: cell-based; settings: CL097 2 μg/mL, 3 h 30 min
Excerpt: 4.10.1. Ex Vivo Human IFNα and TNFα Release Inhibition (Whole Blood Assay)
The aim of the assay is to evaluate the activity of compounds of the invention on the activated TLR/IRAK-4 pathway in an ex vivo human whole blood setting. Toll-like receptors (TLRs) are pattern recognition receptors that recognize a wide variety of microbial molecules, called pathogen-associated molecular patterns (PAMPs). Human TLR7 and TLR8 recognize imidazoquinoline compounds (e.g., CL097—CAS n #1026249-18-2) and single stranded RNAs as their natural ligands. Activation of TLRs leads to the production of several cytokines (e.g., IFNα, TNFα, IL-8, IL-6) by the TLR agonist-treated cells, whereas IRAK4 leads to the production of IFNα. Cytokine release is used as readout in this assay and represents a measure for the level of inhibition of the TLR/IRAK-4 pathway by the tested compound. It should be noted that in the context of the complete organism, other sources for these cytokines exist that are not dependent on the TLR/IRAK-4 pathway, such as e.g., macrophages (upon activation of the Fcγ receptor (Yan et al. 2012)) or T cells (upon activation of the T cell receptor (Brehm, Daniels, and Welsh 2005)).
4.10.1.1. Experimental Design
Blood was collected from healthy volunteers into lithium heparin tubes by venipuncture, then gently inverted several times to prevent clotting and incubated for at least 15 min at 37° C. on a rocking mixer shaker. Then, 100 μL of blood was dispensed into polypropylene 96-well microplate and pre-incubated in duplicate with 0.3% DMSO or test compound at different concentrations (from 30 to 0.01 μM, 3-fold dilutions to get 0.3% DMSO at the final) for 15 min at 37° C. After this pre-incubation, blood was triggered with CL097 (2 μg/mL from 1 mg/mL solution in water; InvivoGen, tlr1-c97) for 3 h 30 min at 37° C. Microtubes were centrifuged at 5000×g for 10 min at 4° C. and approximately 40 μL of plasma were collected into a polystyrene 96-well plate. Plasma could be analyzed freshly, within 30 min after triggering, or frozen at −80° C. Finally, the quantification of TNFα and IFNα were performed in the plasma using AlphaLISA Kit for […] according to the manufacturer's instructions and read on the Ensight (PerkinElmer).
A standard curve was created by plotting on log-log the mean absorbance on the y-axis against the concentration on the x-axis and a 4 PL was made through the points. For each blood sample, the IFNα concentrations of the samples were determined from the fit.
Data were then expressed as a percentage of inhibition (PIN) for each replicate using the formula:
With mean IFNα with CL097=mean IFNα concentration of replicate samples triggered with CL097; IFNαsample1=IFNα concentration of sample 1; mean IFNα with vehicle=mean IFNα concentration of replicate samples treated with vehicle.
For each blood sample, the TNFα concentrations of the samples were determined from the fit. Data were then expressed as a percentage of inhibition (PIN) for each replicate using the formula:
With mean TNFα with CL097=mean TNFα concentration of replicate samples triggered with CL097; TNFαsample1=TNFα concentration of sample 1; mean TNFα with vehicle=mean TNFα concentration of replicate samples treated with vehicle.
Curve fitting for pIC50 determination were generated using mean PIN±sem. Graphs and pIC50 calculations were derived using Prism 5.03 software (GraphPad).

[2] = test system: pooled cryopreserved hepatocytes; test: Metabolic stability in hepatocytes (human); format: in vitro ADME; settings: 1 μM test compound
Summary of the method: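 Test compound at 1 μM (0.03% DMSO) incubated with 0.5 million viable pooled cryopreserved hepatocytes/mL at 37° C with shaking; sampled 0–180 min. Parent loss measured by LC-MS/MS versus time-zero, and intrinsic clearance derived from percentage-remaining plots, scaled to L/h/kg and corrected for hepatocyte binding.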

COc1c(NC(=O)c2cccn(C3CC3)c2=O)cn2cc(CCC(C)(C)O)nc2c1F [Compound 42, 1-cyclopropyl-N-[8-fluoro-2-(3-hydroxy-3-methyl-butyl)-7-methoxy-imidazo[1,2-a]pyridin-6-yl]-2-oxo-pyridine-3-carboxamide]
IC50 ([1]; read-out: IFNα IC50): 0.5 to 1 µM | IC50 ([1]; read-out: TNFα IC50): 0.0001 to 0.5 µM | Human (Perc. remaining at 90 min) [2]: 96.75%

CC(C)(O)CCc1cn2cc(NC(=O)c3cccc(C(F)(F)F)n3)c(C(=O)NCC(F)F)cc2n1 [Compound 48, N-(2,2-difluoroethyl)-2-(3-hydroxy-3-methylbutyl)-6-(6-(trifluoromethyl)picolinamido)imidazo[1,2-a]pyridine-7-carboxamide]
IC50 ([1]; read-out: IFNα IC50): 1 to 5 µM | IC50 ([1]; read-out: TNFα IC50): 1 to 5 µM | Human (Perc. remaining at 90 min) [2]: 100.95%
